Read-outs that look alike come from different tables or passages of the source.
Legend:
dCK-C3S-S74E [1] = experiment: Enzymatic assay (PK/LDH coupled), dC phosphorylation by dCK in the presence of UTP; format: biochemical, human; conditions: for effect on dCK enzymatic activity, activation versus inhibition: UTP 1 mM, dC 200 µM; for ENZYMATIC ASSAY (Activation/Inhibition): presence of UTP
Method in brief: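 Activation versus inhibition was judged with 1 mM UTP, 200 µM dC and 2 μM dCK-C3S-S74E, using pyruvate kinase/lactate dehydrogenase coupling that tracks NADH fluorescence decrease at 460 nm. Buffer was HEPES pH 7.5 with MgCl2, KCl and DTT. Rates came from linear slopes, expressed relative to compound-free control.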

dCK-C3S-S74E [2] = experiment: Thermal shift assay (TSA); conditions: for ΔTm, dCK thermal stabilization (TSA): 5 μM protein, 50 μM compound; for THERMAL SHIFT ASSAY +Tm (°): mean ± SD
Excerpt: BL21 pRIL Escherichia coli cells were transformed with dCK-plasmids (dCK-C4S-S74E (for crystallization assays) and dCK-C3S-S74E (for TSA, enzymatic and ITC assays)). […] Protein dCK-C3S-S74E used for other assays contained only three mutated cysteines. The S74E mutation mimics the phosphorylated state of this serine, which favors the open conformation of the enzyme, making it competent for nucleoside binding[45] to evaluate the binding affinity with compounds.
For binding assays (TSA, ITC and crystallography) cells were re-suspended in 50 mM TRIS, pH 8, 500 mM NaCl, 30 mM imidazole and 10% glycerol buffer and one EDTA free anti-protease tablet was added (Roche). After sonication and centrifugation (30,000 × g), the supernatant was loaded on a 5 ml HisTrap FF column (GE healthcare) pre-equilibrated with resuspension buffer. Protein was then eluted by resuspension buffer containing 500 mM imidazole. Protein eluted fractions were mixed and concentrated. Protein was further purified by size exclusion chromatography (superdex 200 16/600, GE healthcare) in 20 mM HEPES, pH 7.5, and 200 mM NaCl before concentration to 30 mg/ml and storage at −80 °C.
Thermal shift assay (TSA) experiments were performed in 384-well PCR white plates in the assay buffer containing 20 mM HEPES, pH 7.5 and 200 mM NaCl. […] Plates were centrifuged at 200 × g for 2 min at 4 °C. […] Raw fluorescence data were treated, and the melting temperatures (Tm) were calculated using CFX Manager 3.1 software (Bio-Rad). ΔTm represents the difference in Tm between the protein in the presence of compound and the protein alone (both at 2% DMSO). Each experiment was performed at least twice (with technical triplicates) and data are presented as the mean ± SD.

CCRF-CEM cell line = experiment: dCK cellular assay: CCRF-CEM proliferation in the presence of dT and dC; format: cell-based, human; conditions: for activity at 0.0195 µM: 19.5 nM; for activity at 0.039 µM: 39 nM; for activity at 0.078 µM: 78 nM; for activity at 0.156 µM: 156 nM; for activity at 0.312 µM: 312 nM; for activity at 0.625 µM: 625 nM; for activity at 1.25 µM: 1250 nM; for activity at 2.5 µM: 2500 nM; for activity at 5 µM: 5000 nM; for fold improvement of cellular IC50: versus the preceding compound of the optimization
Method in brief: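 Two conditions in T-ALL CCRF-CEM cells: compound only, and compound with thymidine blocking de novo synthesis and deoxycytidine rescuing via dCK. Metabolic dye fluorescence (560/590 nm) gives % proliferation vs DMSO; IC50s, mean ± SD of at least three triplicate runs.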

[3] = Homo sapiens, CCRF-CEM, dT 200 µM + dC 1 µM, read-out: Cell proliferation of the CCRF-CEM cell line Mean (% prolif)
[4] = Homo sapiens, CCRF-CEM, 10000 nM, dT 200 µM + dC 1 µM, read-out: Cell proliferation of the CCRF-CEM cell line Mean (% prolif)
[5] = Homo sapiens, CCRF-CEM, dT 200 µM + dC 1 µM, 72 h, read-out: IC50 cell proliferation (dCK cellular assay)

Chain of dCK-C3S-S74E (P27707 whole entry S74E, form open): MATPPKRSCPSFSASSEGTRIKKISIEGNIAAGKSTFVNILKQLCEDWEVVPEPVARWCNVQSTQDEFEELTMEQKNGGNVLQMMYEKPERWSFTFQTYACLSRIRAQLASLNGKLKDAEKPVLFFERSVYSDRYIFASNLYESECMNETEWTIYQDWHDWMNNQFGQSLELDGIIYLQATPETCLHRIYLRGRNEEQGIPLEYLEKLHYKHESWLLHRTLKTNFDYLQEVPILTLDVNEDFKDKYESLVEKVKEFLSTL

| effect on dCK enzymatic activity, activation versus inhibition (dCK-C3S-S74E [1]) | ENZYMATIC ASSAY (Activation/Inhibition) (dCK-C3S-S74E [1]) | ΔTm, dCK thermal stabilization (TSA) (dCK-C3S-S74E [2]) [°C] | THERMAL SHIFT ASSAY +Tm (°) (dCK-C3S-S74E [2]) | SMILES | Thermal Shift Assay Mean (ΔTm (º)) (dCK-C3S-S74E [2]; Figure 2b) | activity at 0.0195 µM (CCRF-CEM cell line; [3]) [%] | activity at 0.039 µM (CCRF-CEM cell line; [3]) [%] | activity at 0.078 µM (CCRF-CEM cell line; [3]) [%] | activity at 0.156 µM (CCRF-CEM cell line; [3]) [%] | activity at 0.312 µM (CCRF-CEM cell line; [3]) [%] | activity at 0.625 µM (CCRF-CEM cell line; [3]) [%] | activity at 1.25 µM (CCRF-CEM cell line; [3]) [%] | activity at 2.5 µM (CCRF-CEM cell line; [3]) [%] | activity at 5 µM (CCRF-CEM cell line; [3]) [%] | activity at 10 µM (CCRF-CEM cell line; [4]) [%] | IC50 (CCRF-CEM cell line; [5]) [nM] | fold improvement of cellular IC50 (CCRF-CEM cell line) | also measured |
| --- | --- | --- | --- | --- | --- | --- | --- | --- | --- | --- | --- | --- | --- | --- | --- | --- | --- | --- |
| total loss of dCK enzymatic activation | I | 18.4 | 18.4 ± 0.2 | CCCN(c1nc(-c2nccc(N)n2)cs1)c1cc(-c2ccc(CCN3CCN(C)CC3)cc2)ccc1C [OR0345] | 18.4 º | 90.6 | 85.8 | 82 | 72.4 | 63.4 | 51.4 | 37.6 | 19.3 | 2.4 | 0.333 | 505 | 3 fold | – |
| shifted from activators to inhibitors | A/I | 14.3 | 14.3 ± 0.4 | Cc1ccc(NC(=O)c2ccc(CN3CCN(C)CC3)cc2)cc1Nc1nc(-c2nccc(N)n2)cs1 [dCKi1] | – | – | 94.3 | 88.7 | 91 | 94.4 | 93.2 | 98.2 | 91.8 | 67.7 | 31 | – | – | Enzymatic activity (UTP) Mean (% activity) (dCK-C3S-S74E [1]; 0.078 µM): 104.73%; Enzymatic activity (UTP) Mean (% activity) (dCK-C3S-S74E [1]; 0.156 µM): 119.43%; Enzymatic activity (UTP) Mean (% activity) (dCK-C3S-S74E [1]; 0.31 µM): 140.85%; Enzymatic activity (UTP) Mean (% activity) (dCK-C3S-S74E [1]; 0.625 µM): 200.29%; Enzymatic activity (UTP) Mean (% activity) (dCK-C3S-S74E [1]; 1.25 µM): 208.47%; Enzymatic activity (UTP) Mean (% activity) (dCK-C3S-S74E [1]; 2.5 µM): 211.72%; Enzymatic activity (UTP) Mean (% activity) (dCK-C3S-S74E [1]; 5 µM): 205.54%; Enzymatic activity (UTP) Mean (% activity) (dCK-C3S-S74E [1]; 10 µM): 84.19%; Enzymatic activity (UTP) Mean (% activity) (dCK-C3S-S74E [1]; 20 µM): 45.49%; Enzymatic activity (UTP) Mean (% activity) (dCK-C3S-S74E [1]; 40 µM): 12.08%; Enzymatic activity (UTP) Mean (% activity) (dCK-C3S-S74E [1]; 80 µM): 5.40%; Enzymatic activity (UTP) Mean (% activity) (dCK-C3S-S74E [1]; 160 µM): 0.67%; Thermal Shift Assay Mean (ΔTm (º)) (dCK-C3S-S74E [2]; Figure 1b): 14.3 º; activity at 20 µM (CCRF-CEM cell line; Homo sapiens, CCRF-CEM, 20000 nM, dT 200 µM + dC 1 µM, read-out: Cell proliferation of the CCRF-CEM cell line Mean (% prolif)): 8.1%; activity at 10 µM (CCRF-CEM cell line; Homo sapiens, CCRF-CEM, compound 10 µM + dT 111 µM + dC 1 µM, 72 h, read-out: Cell proliferation of the CCRF-CEM cell line Mean (% prolif)): 47%; IC50 (CCRF-CEM cell line; Homo sapiens, read-out: dCK CELLULAR ASSAY IC50 (nM), CCRF-CEM, 200 µM dT and 1 µM dC, read-out: dCK […] ASSAY IC50): 6950 ± 2530 nM; IC50 (CCRF-CEM cell line; Homo sapiens, CCRF-CEM, dT 200 µM + dC 1 µM, 72 h, read-out: IC50 cell proliferation): 6900 nM |

| SMILES | effect on dCK enzymatic activity, activation versus inhibition (dCK-C3S-S74E [1]) | ENZYMATIC ASSAY (Activation/Inhibition) (dCK-C3S-S74E [1]) | ΔTm, dCK thermal stabilization (TSA) (dCK-C3S-S74E [2]) [°C] | THERMAL SHIFT ASSAY +Tm (°) (dCK-C3S-S74E [2]) | Thermal Shift Assay Mean (ΔTm (º)) (dCK-C3S-S74E [2]; Figure 2b) | activity at 0.0195 µM (CCRF-CEM cell line; [3]) [%] | activity at 0.039 µM (CCRF-CEM cell line; [3]) [%] | activity at 0.078 µM (CCRF-CEM cell line; [3]) [%] | activity at 0.156 µM (CCRF-CEM cell line; [3]) [%] | activity at 0.312 µM (CCRF-CEM cell line; [3]) [%] | activity at 0.625 µM (CCRF-CEM cell line; [3]) [%] | activity at 1.25 µM (CCRF-CEM cell line; [3]) [%] | activity at 2.5 µM (CCRF-CEM cell line; [3]) [%] | activity at 5 µM (CCRF-CEM cell line; [3]) [%] | activity at 10 µM (CCRF-CEM cell line; [4]) [%] | IC50 (CCRF-CEM cell line; [5]) [nM] | fold improvement of cellular IC50 (CCRF-CEM cell line) | also measured |
| --- | --- | --- | --- | --- | --- | --- | --- | --- | --- | --- | --- | --- | --- | --- | --- | --- | --- | --- |
| CCCN(c1nc(-c2nc(N)cc(N)n2)cs1)c1cc(-c2ccc(CCN3CCN(C)CC3)nc2)ccc1C [OR0602] | – | I | 19.5 | 19.5 ± 0.5 | 19.7 º | 81.5 | 67.1 | 58.6 | 47.4 | 36.8 | 27.7 | 20.9 | 12.7 | – | – | 130 | ~ 2.4 fold | activity at 0.004875 µM (CCRF-CEM cell line; Homo sapiens, CCRF-CEM, 4.875 nM, dT 200 µM + dC 1 µM, read-out: Cell proliferation of the CCRF-CEM cell line Mean (% prolif)): 91.9%; activity at 0.00975 µM (CCRF-CEM cell line; Homo sapiens, CCRF-CEM, 9.75 nM, dT 200 µM + dC 1 µM, read-out: Cell proliferation of the CCRF-CEM cell line Mean (% prolif)): 88% |
